According to patent publication US10188108B2, “Fused bicyclic heterocycle derivatives as pesticides” (BAYER CROPSCIENCE AKTIENGESELLSCHAFT, priority 2015, dated 2019):
Where two headings read alike, the source gives them in different places.

Experiments:
[1] = log P by HPLC on a reversed-phase column (C 18), EEC Directive 79/831 Annex V.A8; assay type: physicochemical; conditions: for LOGP_NEUTRAL: pH 7.8, 0.001 molar aqueous ammonium hydrogencarbonate/acetonitrile; for chromatographic logP: reversed-phase HPLC column (C 18)
Procedure: The log P values are measured according to EEC Directive 79/831 Annex V.A8 by HPLC (high-performance liquid chromatography) on a reversed-phase column (C 18). Temperature: 55° C.
The LC-MS determination in the acidic range is effected at pH 2.7 using 0.1% aqueous formic acid and acetonitrile (contains 0.1% formic acid) as eluents; linear gradient from 10% acetonitrile to 95% acetonitrile. Called log P (HCOOH) in the table.
LC-MS determination in the neutral range is effected at pH 7.8 with 0.001 molar aqueous ammonium hydrogencarbonate solution and acetonitrile as eluents; linear gradient from 10% acetonitrile to 95% acetonitrile. Called log P (neutral) in the table.
Calibration is carried out using unbranched alkan-2-ones (having 3 to 16 carbon atoms) with known log P values (log P values determined on the basis of the retention times by linear interpolation between two successive alkanones).

[2] = tested on: Ctenocephalides felis; assay: Ctenocephalides felis - in vitro contact tests with adult cat fleas; assay type: in vivo; conditions: 5 μg/cm^2 (=500 g/ha), after 48 h, adult cat fleas dead or moribund
Procedure: For the coating of the test tubes, 9 mg of active compound are first dissolved in 1 ml of acetone p.a. and then diluted to the desired concentration with acetone p.a. 250 μl of the solution are distributed homogeneously on the inner walls and the base of a 25 ml test tube by turning and rocking on an orbital shaker (rocking rotation at 30 rpm for 2 h). With 900 ppm active compound solution and internal surface 44.7 cm^2, given homogeneous distribution, an area-based dose of 5 μg/cm^2 is achieved.
After the solvent has evaporated off, the tubes are populated with 5-10 adult cat fleas (Ctenocephalides felis), sealed with a perforated plastic lid and incubated in a horizontal position at room temperature and ambient humidity. After 48 h, efficacy is determined. To this end, the test tubes are stood upright and the fleas are knocked to the base of the tube. Fleas which remain motionless at the base or move in an uncoordinated manner are considered to be dead or moribund.
100% efficacy means that all the fleas were dead or moribund. 0% efficacy means that no fleas were harmed.

[3] = tested on: Ctenocephalides felis; assay: Ctenocephalides felis - oral test; assay type: in vivo; conditions: 100 ppm in citrated cattle blood, after 2 days, adult cat fleas
Procedure: • Solvent: dimethyl sulphoxide To produce a suitable preparation of active compound, 10 mg of active compound are mixed with 0.5 ml of dimethyl sulphoxide. Dilution with citrated cattle blood gives the desired concentration. About 20 unfed adult cat fleas (Ctenocephalides felis) are placed into a chamber which is closed at the top and bottom with gauze. A metal cylinder whose bottom end is closed with parafilm is placed onto the chamber. The cylinder contains the blood/active compound preparation, which can be imbibed by the fleas through the parafilm membrane. After 2 days, the kill in % is determined. 100% means that all of the fleas have been killed; 0% means that none of the fleas have been killed.

[4] = tested on: Lucilia cuprina; assay: Lucilia cuprina test; assay type: in vivo; conditions: 100 ppm, after 2 days, L1 larvae
Procedure: • Solvent: dimethyl sulphoxide To produce a suitable preparation of active compound, 10 mg of active compound are mixed with 0.5 ml of dimethyl sulphoxide, and the concentrate is diluted with water to the desired concentration. About 20 L1 larvae of the Australian sheep blowfly (Lucilia cuprina) are transferred into a test vessel containing minced horsemeat and the active compound preparation of the desired concentration. After 2 days, the kill in % is determined. 100% means that all the larvae have been killed; 0% means that no larvae have been killed.

[5] = tested on: Musca domestica; assay: Musca domestica test; assay type: in vivo; conditions: after 2 days, adult houseflies
Procedure: • Solvent: dimethyl sulphoxide To produce a suitable preparation of active compound, 10 mg of active compound are mixed with 0.5 ml of dimethyl sulphoxide, and the concentrate is diluted with water to the desired concentration. Vessels containing a sponge treated with sugar solution and the active compound preparation of the desired concentration are populated with 10 adult houseflies (Musca domestica). After 2 days, the kill in % is determined. 100% means that all of the flies have been killed; 0% means that none of the flies have been killed.

[6] = tested on: Myzus persicae; assay: Myzus persicae - spray test (Chinese cabbage leaf discs); assay type: in vivo; conditions: 500 g/ha, after 5-6 days
Procedure: • Solvent: 78 parts by weight of acetone • 1.5 parts by weight of dimethylformamide • Emulsifier: alkylaryl polyglycol ether
(§1) To produce a suitable preparation of active compound, 1 part by weight of active compound is dissolved using the stated parts by weight of solvent and made up with water containing an emulsifier concentration of 1000 ppm until the desired concentration is attained. To produce further test concentrations, the preparation is diluted with emulsifier-containing water.
Discs of Chinese cabbage leaves (Brassica pekinensis) infested by all stages of the green peach aphid (Myzus persicae) are sprayed with an active compound preparation of the desired concentration.
After 5-6 days, the efficacy in % is determined. 100% means that all the aphids have been killed; 0% means that no aphids have been killed.

[7] = tested on: Phaedon cochleariae; assay: Phaedon cochleariae - spray test; assay type: in vivo; conditions: 500 g/ha, after 7 days, larvae on Chinese cabbage leaf discs
Procedure: (§2) • Solvent: 78.0 parts by weight of acetone • 1.5 parts by weight of dimethylformamide • Emulsifier: alkylaryl polyglycol ether
as §1
After 7 days, the efficacy in % is determined. 100% means that all the beetle larvae have been killed; 0% means that no beetle larvae have been killed.

[8] = tested on: Spodoptera frugiperda; assay: Spodoptera frugiperda - spray test; assay type: in vivo; conditions: 500 g/ha, after 7 days, caterpillars on maize leaf discs
Procedure: as §2, §1
Leaf discs of maize (Zea mays) are sprayed with an active compound preparation of the desired concentration and, after drying, populated with caterpillars of the armyworm (Spodoptera frugiperda).
After 7 days, the efficacy in % is determined. 100% means that all the caterpillars have been killed; 0% means that no caterpillars have been killed.

[9] = acidic range, pH 2.7, 0.1% aqueous formic acid/acetonitrile, 55° C.
[10] = neutral range, pH 7.8, value in preparation example text, read-out: log P (neutral)
[11] = acidic range, pH 2.7, 0.1% aqueous formic acid/acetonitrile, 55° C., read-out: LOGP_HCOOH

SMILES | LOGP_HCOOH [1, 9] | LOGP_NEUTRAL ([1]; neutral range, 55° C.) | chromatographic logP [1, 10] | efficacy [2] | efficacy (kill) [3] | efficacy (kill) [4] | efficacy (kill) ([5]; 4 ppm) | efficacy [6] | efficacy [7] | efficacy [8] | chromatographic logP [1, 11] | efficacy (kill) ([5]; 20 ppm)
CCS(=O)(=O)c1c(-c2nc3cc(C(F)(F)F)ncc3n2C)nc2ccccn12 [Example I-1, 2-(3-Ethylsulphonylimidazo[1,2-a]pyridin-2-yl)-3-methyl-6-(trifluoromethyl)imidazo[4,5-c]pyridine] | 2.08 | 2.05 | 2.07 | 100% | 98% | 100% | 85% | 90% | 83% | 100% |  | 
CCSc1c(-c2nc3cc(C(F)(F)F)ncc3n2C)nc2ccccn12 [Example I-2, 2-(3-Ethylsulphanylimidazo[1,2-a]pyridin-2-yl)-3-methyl-6-(trifluoromethyl)imidazo[4,5-c]pyridine] |  | 2.75 | 2.75 |  |  |  |  | 90% |  |  | 2.84 | 
CCS(=O)(=O)c1c(-c2nc3cc(C(F)(F)F)ncc3n2C)nc2ccc(Cl)cn12 [Example I-4] | 2.67 | 2.61 |  | 100% | 90% | 100% | 80% | 90% |  | 100% |  | 
CCS(=O)(=O)c1c(-c2nc3cc(C(F)(F)F)ncc3n2C)nc2ccc(C(F)(F)F)cn12 [Example I-6] | 3.09 | 3.06 |  | 100% | 100% | 100% |  | 90% | 100% | 100% |  | 90%
CC[S+]([O-])c1c(-c2nc3cc(C(F)(F)F)ncc3n2C)nc2ccc(Cl)cn12 (stereo not drawn) [Example I-7] | 2.93 | 2.83 |  |  |  |  |  | 90% |  | 100% |  | 
CC[S+]([O-])c1c(-c2nc3cc(C(F)(F)F)ccc3n2C)nc2ccccn12 (stereo not drawn) [Example I-11] | 2.92 | 2.85 |  |  |  |  |  | 90% | 100% | 100% |  | 
CCS(=O)(=O)c1c(-c2nc3cc(C(F)(F)F)ncc3n2C)nc2cc(C(F)(F)F)ccn12 [Example I-17] | 3.00 | 2.98 |  | 100% | 100% | 100% | 80% | 100% | 100% | 100% |  | 
CCS(=O)(=O)c1c(-c2nc3cc(C(F)(F)F)ncc3n2C)nc2c(Cl)cccn12 [Example I-19] | 2.56 | 2.50 |  |  |  |  |  | 90% | 100% | 100% |  | 
CCS(=O)(=O)c1c(-c2nc3cc(C(F)(F)F)ncc3n2C)nc2cccc(C(F)(F)F)n12 [Example I-21] | 2.69 | 2.66 |  |  |  |  |  | 100% | 100% | 100% |  | 
CC[S+]([O-])c1c(-c2nc3cc(C(F)(F)F)ncc3n2C)nc2cccc(C(F)(F)F)n12 (stereo not drawn) [Example I-22] | 2.30 | 2.30 |  |  |  |  |  | 90% | 100% |  |  | 
CCS(=O)(=O)c1c(-c2nc3cc(C(F)(F)F)ncc3n2C)nc2cc(Cl)ccn12 [Example I-23] | 2.66 | 2.64 |  | 100% |  |  |  |  | 100% | 100% |  | 
CCS(=O)(=O)c1c(-c2nc3cc(C(F)(F)F)ccc3n2C)nc2cc(C)ccn12 [Example I-33] | 3.01 |  |  | 100% |  |  |  |  |  | 83% |  | 
CCS(=O)(=O)c1c(-c2nc3cc(C(F)(F)F)ccc3n2C)nc2cc(C(F)(F)F)ccn12 [Example I-34] | 3.72 |  |  | 100% |  |  |  |  | 100% | 100% |  | 
CCS(=O)(=O)c1c(-c2nc3cc4c(cc3n2C)OC(F)(F)O4)nc2ccccn12 [Example I-41, 6-[3-(Ethylsulphonyl)imidazo[1,2-a]pyridin-2-yl]-2,2-difluoro-5-methyl-5H-[1,3]dioxolo[4,5-f]benzimidazole] |  | 2.62 | 2.62 |  |  |  |  | 90% | 100% | 83% | 2.59 | 
CCS(=O)(=O)c1c(-c2nc3cc(C(F)(F)F)ccc3n2C)nc2cccc(C)n12 [Example I-46] | 2.73 |  |  |  |  |  |  | 90% | 83% |  |  | 
CCS(=O)(=O)c1c(-c2nc3cc(C(F)(F)F)ncc3n2C)nc2ccc(C)cn12 [Example I-48] | 2.43 | 2.36 |  |  |  |  |  | 90% |  | 100% |  | 
CCS(=O)(=O)c1c(-c2nc3cc(C(F)(F)F)cnc3n2C)nc2ccc(C)cn12 [Example I-53] | 2.84 | 2.78 |  |  |  |  |  | 100% |  | 100% |  | 
CCS(=O)(=O)c1c(-c2nc3cc(C(F)(F)F)ncc3n2C)nc2ccc(OC)cn12 [Example I-54] | 2.41 | 2.37 |  |  |  |  |  | 90% |  | 100% |  | 
